Laboratory results taken from patent US20240271329A1, “CYCLIC COMPOUND LIBRARY AND CONSTRUCTION METHOD THEREFOR” (Yafei Shanghai Biology Medicine Science & Technology Co. …, priority 2021, published 2024).
Where two headings read alike, the source gives them in different places. Square brackets hold non-standard residues; d marks the D form. Peptide text beside a SMILES is read from it. * marks the point of attachment. ξ: configuration not given here. Phe(3-CF3) = N[C@@H](Cc1cccc(C(F)(F)F)c1)C(=O)O; NMeF = CN[C@@H](Cc1ccccc1)C(=O)O; 3Pal = N[C@@H](Cc1cccnc1)C(=O)O; Cha = N[C@@H](CC1CCCCC1)C(=O)O; Cit = NC(=O)NCCC[C@H](N)C(=O)O; NMeL = CN[C@@H](CC(C)C)C(=O)O; ξP = O=C(O)C1CCCN1; OtBu = CC(C)(C)O*; Sar = CNCC(=O)O

Assay: MDCK monolayer membrane permeability (A→B transport)
Format: in vitro ADME, canine
Conditions: dog
Protocol: In order to determine the cyclic peptide compounds 9-12 obtained in the above examples, an MDCK model was established to determine their membrane permeability. The MDCK cell line was sourced from Madin Darby canine epithelial cell lines, and the monolayer MDCK cell was the best cytological model to study the in vivo processes such as absorption and reabsorption of drugs in renal tubules. The MDCK cells in a disperse culture flask were digested, and seeded to Millicell CPI at 5×10^4/cm^2; 400 μL of MEM culture solution containing 10% FBS was added to a side A (a luminal side, Apical), and 800 μL of the MEM culture solution was added to a side B (a basolateral side); and the mixture was incubated in an incubator containing 5% CO2 at 37° C. The solution was changed every day. It should be noted that a pipette should not to touch a cell membrane, thereby avoiding damaging the cell layer; and the transmembrane resistance (i.e., trans-epithelial electrical resistance, TEER) was regularly measured by using Millicell2ERS to test the integrity of the cell monolayer.
The A→B transport from the apical end (A) to the basolateral end (B) of the monolayer membrane of the MDCK cells was observed. For the determination of A→B, 450 μL of a drug or a positive control HEPES solution was added to the apical end of the membrane as a feeding cell, and 1300 μL of a blank HEPES solution was added to the basolateral end as a receiving cell. A Transwell plate was placed on a constant-temperature shaker at 37° C. and shaken; after 90 min, a sample solution was extracted respectively from the feeding cell and the receiving cell; acetonitrile was added to precipitate proteins, and then vortexing, centrifuging and transferring were carried out; and the permeance was measured by LC/MS. Based on this permeance, a membrane permeance coefficient (Papp, i.e., apparent permeability, which was a specific evaluation parameter) was calculated. The Papp greater than 1×10^−6 cm/s indicated the absorption of more than 60% of a drug, and the Papp greater than 10×10^−6 cm/s indicated the absorption of more than 80% of drug molecules.

[1] = apical to basolateral, MDCK monolayer, 37° C., 90 min, LC/MS, read-out: MDCK Papp(A − B)
[2] = MDCK A→B, not, read-out: Papp values

Row | SMILES | Papp A→B at 90 min [1] | Papp A→B at 90 min [2]
1 | CC(C)C[C@@H]1NC(=O)CNC(=O)[C@H](CC(N)=O)NC(=O)C2CCCN2C(=O)[C@H]2CCCN2C(=O)[C@H](CCC(=O)OC(C)(C)C)NC(=O)CN(C)C(=O)[C@H](CCCNC(N)=O)NC(=O)[C@H](CC(C)C)N(C)C(=O)[C@H](Cc2ccccc2)N(C)C1=O (stereo partly drawn) [Compound 12] (cyclo([Cit][Sar]E(OtBu)[dP][ξP]NGL[NMeF][NMeL])) | 0.9 ×10⁻⁶ cm/s | 
2 | CC(C)C[C@@H]1NC(=O)CNC(=O)[C@H](CC(N)=O)NC(=O)C2CCCN2C(=O)[C@H]2CCCN2C(=O)[C@H](CCC(=O)OC(C)(C)C)NC(=O)CN(C)C(=O)[C@H](Cc2cccc(C(F)(F)F)c2)NC(=O)[C@H](CC(C)C)N(C)C(=O)[C@H](Cc2ccccc2)N(C)C1=O (stereo partly drawn) [Compound 9] (cyclo(E(OtBu)[dP][ξP]NGL[NMeF][NMeL][Phe(3-CF3)][Sar])) | 11.3 ×10⁻⁶ cm/s | > 10 ×10⁻⁶ cm/s
3 | CC(C)C[C@@H]1NC(=O)CNC(=O)[C@H](CC(N)=O)NC(=O)C2CCCN2C(=O)[C@H]2CCCN2C(=O)[C@H](CCC(=O)OC(C)(C)C)NC(=O)CN(C)C(=O)[C@H](Cc2cccnc2)NC(=O)[C@H](CC(C)C)N(C)C(=O)[C@H](Cc2ccccc2)N(C)C1=O (stereo partly drawn) [Compound 10] (cyclo([3Pal][Sar]E(OtBu)[dP][ξP]NGL[NMeF][NMeL])) | 4.8 ×10⁻⁶ cm/s | 
4 | CC(C)C[C@@H]1NC(=O)CNC(=O)[C@H](CC(N)=O)NC(=O)C2CCCN2C(=O)[C@H]2CCCN2C(=O)[C@H](CCC(=O)OC(C)(C)C)NC(=O)CN(C)C(=O)[C@H](CC2CCCCC2)NC(=O)[C@H](CC(C)C)N(C)C(=O)[C@H](Cc2ccccc2)N(C)C1=O (stereo partly drawn) [Compound 11] (cyclo([Cha][Sar]E(OtBu)[dP][ξP]NGL[NMeF][NMeL])) | 16.2 ×10⁻⁶ cm/s | > 10 ×10⁻⁶ cm/s
